Literature values in article PMC3341666 (Biochemistry, 2009).

What was measured:
[1] = biological target: Prostate-Specific Antigen (PSA) (Homo sapiens, UniProt P07288); settings: introduction statement, no reference given
Bovine α-Chymotrypsin = Bovine α-Chymotrypsin (Bos taurus, UniProt P00766); settings: previous study

Chain of Prostate-Specific Antigen (PSA) (P07288 25-261): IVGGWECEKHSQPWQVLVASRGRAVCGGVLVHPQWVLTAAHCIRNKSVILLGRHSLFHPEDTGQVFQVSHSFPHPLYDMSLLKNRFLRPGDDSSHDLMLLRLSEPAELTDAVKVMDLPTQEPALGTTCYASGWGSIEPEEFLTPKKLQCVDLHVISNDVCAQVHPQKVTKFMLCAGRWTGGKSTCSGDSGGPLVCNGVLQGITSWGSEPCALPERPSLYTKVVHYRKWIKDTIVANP

Row | Compound | PSA inhibition (in words) [1] | fold higher Ki for chymotrypsin (vs PSA) (Bovine α-Chymotrypsin)
1 | O=S(=O)(F)Cc1ccccc1 [PMSF, phenylmethylsulphonyl fluoride] | poor PSA inhibitors | –
2 | Z-SSKL(boro)L | – | ~ 65 fold
3 | Cc1ccc(S(=O)(=O)N[C@@H](Cc2ccccc2)C(=O)CCl)cc1 [TPCK, tosyl-phenylalanine chloromethylketone] | poor PSA inhibitors | –
